{
  "source": "patent US4562205A",
  "about": "“Derivatives of 2-aminoacetic acid” (Continental Pharma Inc., priority 1983, dated 1985)",
  "key": {"in vivo [1]": {"assay": "in vivo", "details": "mouse, in vivo, po", "source_text": "(§1) In further pharmacological tests the acute toxicity and the effect on behaviour have been examined. The effect on behaviour has been studied using a method derived from the one of S. Irvin [Gordon Res. Conf. on Medicinal Chemistry, p. 1933 (1959) as cited by R. A. Turner (Screening Methods in Pharmacology, Acad. Press, 1965, Chapter III, pages 22-34)].\n(§2) No further testing has been made when a dose has been reached at which no abnormal behaviour or toxicity has been observed. […] The deaths were registered for 14 days following the treatment.\n(§3) The LD50 value, i.e. the dose expressed in mg/kg which is lethal for 50% of the animals, has been calculated according to the Litchfield and Wilcoxon method [J. Pharmacol. Exp. Ther., 96, 99 (1949)]."}, "mice [2]": {"tested_on": "mice", "assay": "in vivo", "details": "mice; for deaths: 3000 mg/kg per os", "source_text": "as §1, §2, §3"}, "[3]": {"tested_on": "convulsions induced by bicuculline in mice", "assay": "Anti-convulsant activity against bicuculline-induced convulsions (protection against tonic extension)", "format": "in vivo, mice (CDl-Charles River)", "details": "for potency compared with reference (in words): ED50 comparison, bicuculline test; for ED50: Mus musculus, 3 h, read-out: ED50 (dose providing protection against tonic extension of 50% of the animals); for % of protection (against tonic extension): 10 mg/kg, 20 mice", "protocol": "The compounds tested, 2-pentanoylaminoacetic acid (compound I), sodium 2-pentanoylaminoacetate (compound II) or sodium valproate (a generally accepted reference substance), have been administered orally to 20 mice (CDl-Charles River) at a dose of 10 mg/kg as a suspension in a 1% tragacanth gum mucilage. Administration has been done by means of an intragastric tube.\nThree hours later, bicuculline has been administered at a dose of 0,7 mg/kg by intravenous injection in the lateral vein of the tail.\nThe anti-convulsant activity of the compounds has been further evaluated, using the technique described hereinabove, by examining the effect at different doses. From the experimental data, the ED50 value has been calculated, i.e. the effective dose (mg/kg) providing protection against tonic extension of 50% of the animals."}, "in vivo [4]": {"assay": "in vivo", "details": "mouse, in vivo, po", "source_text": "as §1, §2", "remark": "listed apart in the source"}, "mice [5]": {"tested_on": "mice", "assay": "in vivo", "details": "oral, mice", "source_text": "as §1, §2"}, "[6]": {"details": "oral, bicuculline 0,7 mg/kg i.v. three hours later"}, "[7]": {"details": "oral, different doses, bicuculline 0,7 mg/kg i.v. three hours later, mice"}},
  "note": "Like-named read-outs stand apart in the source and are kept apart here.",
  "data": [
    {"smiles": "CCCCC(=O)NCC(=O)[O-].[Na+]", "values": [
      {"measurement": "LD50 at 336 h", "setting": "in vivo [1]", "result": "> 3000", "unit": "mg/kg"},
      {"measurement": "deaths", "setting": "mice [2]", "result": "no deaths"},
      {"measurement": "TI-A (LD50/ED50)", "setting": "mice [2]; therapeutical index, oral", "result": "> 326"},
      {"measurement": "potency compared with reference (in words)", "setting": "[3]; mice", "result": "more potent"},
      {"measurement": "ED50", "setting": "[3]; po", "result": 9.2, "unit": "mg/kg"},
      {"measurement": "% of protection (against tonic extension)", "setting": "[3]; [6]", "result": 55, "unit": "%"},
      {"measurement": "MTD at 336 h", "setting": "in vivo [4]", "result": "≥ 3000", "unit": "mg/kg"},
      {"measurement": "toxicity and effect on behaviour (in words)", "setting": "mice [5]", "result": "very weak"},
      {"measurement": "TI-B (MTD/ED50)", "setting": "mice [5]; therapeutical index", "result": "> 326"}
    ]},
    {"smiles": "CCCCC(=O)NCC(=O)O", "note": "[compound I, 2-pentanoylaminoacetic acid]", "values": [
      {"measurement": "LD50 at 336 h", "setting": "in vivo [1]", "result": "> 3000", "unit": "mg/kg"},
      {"measurement": "deaths", "setting": "mice [2]", "result": "no deaths"},
      {"measurement": "potency compared with reference (in words)", "setting": "[3]; mice", "result": "more potent"},
      {"measurement": "ED50", "setting": "[3]; [7]", "result": 10.7, "unit": "mg/kg"},
      {"measurement": "anti-convulsant activity (in words)", "setting": "[3]; convulsions induced by bicuculline in mice", "result": "potent anti-convulsant activity"},
      {"measurement": "% of protection (against tonic extension)", "setting": "[3]; [6]", "result": 55, "unit": "%"},
      {"measurement": "MTD at 336 h", "setting": "in vivo [4]", "result": "≥ 3000", "unit": "mg/kg"},
      {"measurement": "selectivity ratio", "setting": "in vivo [4]; TI-B (MTD/ED50), therapeutical index, mice", "result": "> 280"},
      {"measurement": "toxicity and effect on behaviour (in words)", "setting": "mice [5]", "result": "very weak"}
    ]},
    {"smiles": "CCCC(CCC)C(=O)[O-].[Na+]", "note": "[sodium valproate, reference compound]", "values": [
      {"measurement": "ED50", "setting": "[3]; [7]", "result": 29, "unit": "mg/kg"},
      {"measurement": "% of protection (against tonic extension)", "setting": "[3]; [6]", "result": 40, "unit": "%"}
    ]}
  ]
}
